Measured values published in patent publication US8937088B2, “Ureas for the treatment and prevention of cancer” (Astar Biotech LLC, priority 2011, dated 2015).
Read-outs that look alike come from different tables or passages of the source.

Assays:
KDR(VEGFR2) = KDR(VEGFR2) (Homo sapiens, UniProt P35968); test: In vitro kinase assay (Invitrogen SelectScreen Profiling Service), KDR; assay type: biochemical
Experimental: (§1) Biological Test 1. In Vitro Kinase Assay for BRAF, FLT3 and KDR(VEGFR2) The inhibitory activities of the compounds of the invention were measured by Invitrogen's SelectScreen® Profiling Service.

FLT3 = biological target: T1, FLT3 (Homo sapiens, UniProt P36888); test: In vitro kinase assay (Invitrogen SelectScreen Profiling Service), FLT3; assay type: biochemical; settings: FLT3, 0.1 μM
T1 sequence (P36888 27-993): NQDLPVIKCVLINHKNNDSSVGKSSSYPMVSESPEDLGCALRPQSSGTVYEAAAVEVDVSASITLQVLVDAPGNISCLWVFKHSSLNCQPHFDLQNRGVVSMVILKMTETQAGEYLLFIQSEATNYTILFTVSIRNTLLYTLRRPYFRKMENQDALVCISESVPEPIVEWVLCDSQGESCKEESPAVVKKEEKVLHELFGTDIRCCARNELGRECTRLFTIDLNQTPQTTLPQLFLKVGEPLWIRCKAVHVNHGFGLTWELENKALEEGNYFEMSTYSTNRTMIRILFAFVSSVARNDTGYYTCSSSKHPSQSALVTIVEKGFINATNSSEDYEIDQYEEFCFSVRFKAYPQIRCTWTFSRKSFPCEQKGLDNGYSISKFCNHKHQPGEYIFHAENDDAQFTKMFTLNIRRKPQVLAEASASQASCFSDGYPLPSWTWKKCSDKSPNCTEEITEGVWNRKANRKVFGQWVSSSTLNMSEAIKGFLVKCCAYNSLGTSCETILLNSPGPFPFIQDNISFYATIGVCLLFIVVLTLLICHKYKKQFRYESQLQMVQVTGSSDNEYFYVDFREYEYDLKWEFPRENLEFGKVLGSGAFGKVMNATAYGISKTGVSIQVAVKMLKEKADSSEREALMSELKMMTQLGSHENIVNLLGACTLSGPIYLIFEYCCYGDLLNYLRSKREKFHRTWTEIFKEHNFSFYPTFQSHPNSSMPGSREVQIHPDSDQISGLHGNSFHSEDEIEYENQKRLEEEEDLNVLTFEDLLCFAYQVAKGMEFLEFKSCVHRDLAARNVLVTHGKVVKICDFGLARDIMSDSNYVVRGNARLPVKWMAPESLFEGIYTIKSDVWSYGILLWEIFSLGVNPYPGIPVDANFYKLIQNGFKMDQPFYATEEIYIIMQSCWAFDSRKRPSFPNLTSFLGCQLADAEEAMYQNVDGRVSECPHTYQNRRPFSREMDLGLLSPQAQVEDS
Experimental: as §1

[1] = tested on: HUH7 (human hepatoma cell line); test: Cell death detection, trypan blue exclusion assay, HUH7; assay type: cell-based; settings: Huh-7, 168 h, HUH7, 7-day treatment, read-out: Cell Death (%) at Tested Concentration
Experimental: (§2) Biological Test 2. Cell Death Detection Using Trypan Blue Exclusion Assay.
(§3) After drug treatment, cells were harvested by trypsinization with trypsin/EDTA for 10 min at 37° C. As some apoptotic cells detached from the culture substratum into the medium, these cells were also collected by centrifugation of the medium at 1,200 rpm for 5 min. The pooled cell pellets were resuspended and mixed with trypan blue dye. After Trypan blue stain was done, cells were counted by using a light microscope and a hemocytometer. Blue dye-incorporating cells were scored as being dead. Five hundred cells from randomly chosen fields were counted, and the number of dead cells was counted and expressed as a percentage of the total number of cells counted as shown in Tables 2 to 8 below.

[2] = tested on: Hep3B (human hepatoma cell line); test: Cell death detection, trypan blue exclusion assay, Hep3B; assay type: cell-based; settings: 5-day treatment
Experimental: as §2, §3

[3] = tested on: HT29 (human colon adenocarcinoma cell line); test: Cell death detection, trypan blue exclusion assay, HT29; assay type: cell-based; settings: HT29, 5-day treatment
Experimental: as §2, §3

BRAF = BRAF (Homo sapiens, UniProt P15056); test: In vitro kinase assay (Invitrogen SelectScreen Profiling Service), BRAF; assay type: biochemical
Experimental: as §1

[4] = tested on: HepG2 (human Hepatocellular carcinoma cell line); test: Cell death detection, trypan blue exclusion assay, HepG2; assay type: cell-based; settings: HepG2, 5-day treatment
Experimental: as §2, §3

[5] = tested on: LNCaP (human prostate adenocarcinoma cell line); test: Cell death detection, trypan blue exclusion assay, LNCaP; assay type: cell-based; settings: read-out: Cell Death (%) at Tested Concentration
Experimental: as §2, §3

[6] = tested on: HUH7 (human hepatoma cell line); test: Cell death detection, trypan blue exclusion assay, HUH7, in combination with AZD-6244; assay type: cell-based; settings: HUH7, 6-day treatment, compound 0.5 μM
Experimental: as §2, §3

[7] = tested on: patient-derived primary squamous lung 14531 tumor; test: In vivo activity in SCID mouse model with lung cancer, 30-day treatment; settings: patient-derived primary squamous lung 14531 tumor in mouse, compared to the control
Text: Biological Test 4. In Vivo Activity in […] SCID Mouse Model with Lung Cancer
Biological Test 5. In Vivo Activity in Senograph SCID Mouse Model with Lung Cancer

Sequence of KDR(VEGFR2) (P35968 20-1356): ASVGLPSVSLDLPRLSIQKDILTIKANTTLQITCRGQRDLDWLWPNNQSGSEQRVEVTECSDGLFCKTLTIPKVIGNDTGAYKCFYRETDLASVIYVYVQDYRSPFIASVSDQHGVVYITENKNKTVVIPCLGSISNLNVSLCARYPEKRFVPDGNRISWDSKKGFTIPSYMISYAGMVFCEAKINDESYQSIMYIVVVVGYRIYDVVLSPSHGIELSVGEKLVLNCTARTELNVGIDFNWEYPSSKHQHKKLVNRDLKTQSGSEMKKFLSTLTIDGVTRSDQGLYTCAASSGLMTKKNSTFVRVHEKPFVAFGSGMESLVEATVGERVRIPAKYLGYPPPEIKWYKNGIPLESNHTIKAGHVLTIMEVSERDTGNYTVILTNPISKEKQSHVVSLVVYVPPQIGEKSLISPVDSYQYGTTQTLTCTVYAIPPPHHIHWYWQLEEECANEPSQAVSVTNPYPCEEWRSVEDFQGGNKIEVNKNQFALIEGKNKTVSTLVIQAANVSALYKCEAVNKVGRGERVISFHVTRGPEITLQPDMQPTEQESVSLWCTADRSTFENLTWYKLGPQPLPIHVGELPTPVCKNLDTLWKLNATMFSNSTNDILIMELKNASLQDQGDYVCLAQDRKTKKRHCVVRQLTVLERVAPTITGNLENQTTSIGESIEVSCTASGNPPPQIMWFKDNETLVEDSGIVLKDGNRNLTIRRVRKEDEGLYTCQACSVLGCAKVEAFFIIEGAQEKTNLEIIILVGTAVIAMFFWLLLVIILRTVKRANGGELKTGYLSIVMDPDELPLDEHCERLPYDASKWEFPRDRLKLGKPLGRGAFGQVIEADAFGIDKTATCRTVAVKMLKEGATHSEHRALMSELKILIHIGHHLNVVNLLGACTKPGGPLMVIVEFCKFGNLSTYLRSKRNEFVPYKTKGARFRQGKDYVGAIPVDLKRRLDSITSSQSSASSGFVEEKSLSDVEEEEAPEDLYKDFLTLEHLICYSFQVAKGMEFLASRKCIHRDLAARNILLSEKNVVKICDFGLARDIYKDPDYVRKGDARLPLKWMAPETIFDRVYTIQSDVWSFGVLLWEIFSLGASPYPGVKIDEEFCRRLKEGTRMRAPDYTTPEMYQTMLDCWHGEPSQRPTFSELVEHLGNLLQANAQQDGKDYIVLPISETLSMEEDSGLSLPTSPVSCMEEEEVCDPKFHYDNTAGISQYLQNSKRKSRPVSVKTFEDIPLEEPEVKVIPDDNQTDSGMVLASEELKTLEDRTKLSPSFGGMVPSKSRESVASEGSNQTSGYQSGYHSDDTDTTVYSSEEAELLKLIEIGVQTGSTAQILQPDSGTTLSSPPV
Sequence of BRAF (P15056 whole entry): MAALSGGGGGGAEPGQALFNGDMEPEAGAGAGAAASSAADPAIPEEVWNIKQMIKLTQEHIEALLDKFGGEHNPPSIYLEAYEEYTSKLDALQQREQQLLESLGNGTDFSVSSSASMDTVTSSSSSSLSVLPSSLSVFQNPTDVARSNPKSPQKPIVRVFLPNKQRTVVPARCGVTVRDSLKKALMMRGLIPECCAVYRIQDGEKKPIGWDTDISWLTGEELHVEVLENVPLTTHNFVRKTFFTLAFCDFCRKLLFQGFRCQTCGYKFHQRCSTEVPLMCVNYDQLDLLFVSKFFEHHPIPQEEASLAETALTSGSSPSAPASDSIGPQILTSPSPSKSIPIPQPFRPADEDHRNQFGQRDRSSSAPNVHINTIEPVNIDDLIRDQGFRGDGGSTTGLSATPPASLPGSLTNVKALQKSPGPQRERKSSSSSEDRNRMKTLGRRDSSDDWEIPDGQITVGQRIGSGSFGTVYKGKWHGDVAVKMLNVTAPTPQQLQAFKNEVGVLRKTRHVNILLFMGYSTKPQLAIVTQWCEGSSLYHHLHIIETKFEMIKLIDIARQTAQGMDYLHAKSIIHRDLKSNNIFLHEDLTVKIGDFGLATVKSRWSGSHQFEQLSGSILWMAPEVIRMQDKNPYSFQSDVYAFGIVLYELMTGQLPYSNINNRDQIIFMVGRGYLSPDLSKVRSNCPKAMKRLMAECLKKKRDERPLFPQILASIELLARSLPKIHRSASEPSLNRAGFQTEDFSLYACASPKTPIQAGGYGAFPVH

| Compound | Cell Death (%) at Tested Concentration ([2]; 0.25 uM) [%] | Cell Death (%) at Tested Concentration ([2]; 3.0 uM) [%] | Cell Death (%) at Tested Concentration ([2]; 5.0 uM) [%] | Cell Death (%) at Tested Concentration ([3]; 2.5 uM) [%] | Cell Death (%) at Tested Concentration ([3]; 5.0 uM) [%] | Cell Death (%) at Tested Concentration ([3]; 10 uM) [%] | Cell Death (%) at Tested Concentration ([4]; 0.25 uM) [%] | Cell Death (%) at Tested Concentration ([4]; 3.0 uM) [%] | Cell Death (%) at Tested Concentration ([4]; 5.0 uM) [%] | cytotoxicity at 1 µM ([5]; 72 h, 3-day treatment) [%] | cytotoxicity at 2.5 µM ([5]; 72 h, 3-day treatment) [%] | cytotoxicity at 5 µM ([5]; 72 h, 3-day treatment) [%] | cytotoxicity at 7.5 µM ([5]; 72 h, 3-day treatment) [%] | cytotoxicity at 10 µM ([5]; 72 h, 3-day treatment) [%] | cytotoxicity at 1 µM ([5]; 168 h, 7-day treatment) [%] | cytotoxicity at 2.5 µM ([5]; 168 h, 7-day treatment) [%] | cytotoxicity at 5 µM ([5]; 168 h, 7-day treatment) [%] | cytotoxicity at 7.5 µM ([5]; 168 h, 7-day treatment) [%] | cytotoxicity at 10 µM ([5]; 168 h, 7-day treatment) [%] | Cell Death (%) in combination with AZD-6244 ([6]; AZD-6244 0 μM) [%] | further results |
| --- | --- | --- | --- | --- | --- | --- | --- | --- | --- | --- | --- | --- | --- | --- | --- | --- | --- | --- | --- | --- | --- |
| CNC(=O)c1cc(Oc2ccc(NC(=O)Nc3ccc(Cl)c(S(F)(F)(F)(F)F)c3)c(F)c2)ccn1 [Example 4, 4-[4-({[4-chloro-3-(pentafluoro-λ^6-sulfanyl)phenyl]carbamoyl}amino)-3-fluorophenoxy]-N-methylpyridine-2-carboxamide] | 4.6 | 67.2 | 96.7 | 11.6 | 13.8 | 44.6 | 1.9 | 4.5 | 27.6 | 1.8 | 1.4 | 2.8 | 46.8 | 94.8 | 1.4 | 2.7 | 69.4 | 99 | 99 | 2.6 | inhibition at 0.1 µM (KDR(VEGFR2)): 36%; inhibition at 0.1 µM (FLT3): 51%; cytotoxicity at 1 µM [1]: 2.8%; cytotoxicity at 2.5 µM [1]: 3.1%; cytotoxicity at 5 µM [1]: 59.8%; cytotoxicity at 7.5 µM [1]: 91.4%; cytotoxicity at 10 µM [1]: 93.4%; inhibition at 0.1 µM (BRAF): 8%; Cell Death (%) in combination with AZD-6244 ([6]; AZD-6244 0.5 μM): 99%; effect in reducing the tumor volume [7]: significant effect in reducing the tumor volume |
| CNC(=O)c1cc(Oc2ccc(NC(=O)Nc3ccc(S(F)(F)(F)(F)F)cc3)c(F)c2)ccn1 [Example 10, 4-[3-fluoro-4-({[4-(pentafluoro-λ^6-sulfanyl)phenyl]carbamoyl}amino)phenoxy]-N-methylpyridine-2-carboxamide] | 3.4 | 7.6 | 19.5 | 18.3 | 54.6 | 56.7 | 2.7 | 4.2 | 4.8 | 1.8 | 1.9 | 9.4 | 11.3 | 68.3 | 2.2 | 2.8 | 99 | 99 | 99 | 1.7 | cytotoxicity at 1 µM [1]: 1.9%; cytotoxicity at 2.5 µM [1]: 2.2%; cytotoxicity at 5 µM [1]: 17.2%; cytotoxicity at 7.5 µM [1]: 87.6%; cytotoxicity at 10 µM [1]: 93.7%; Cell Death (%) in combination with AZD-6244 ([6]; AZD-6244 0.5 μM): 94.6%; effect in reducing the tumor volume [7]: significant effect in reducing the tumor volume |
| CNC(=O)c1cc(Oc2ccc(NC(=O)Nc3ccc(Cl)c(C(F)(F)F)c3)cc2)ccn1 [Sorafenib, reference compound] | 3.0 | 12.5 | 88.2 | 11.6 | 14.3 | 27.6 | 2.2 | 6.4 | 8.2 | 1.6 | 1.7 | 2.3 | 2.4 | 81.3 | 1.6 | 1.6 | 2.8 | 14.7 | 99 | 1.9 | Cell Death (%) in combination with AZD-6244 ([6]; AZD-6244 0.5 μM): 97.3%; effect in reducing the tumor volume [7]: significant effect in reducing the tumor volume |
